“And” between values parts separate entries of the source, which are not always exact repeats. Equal values may be shown once.
How the values were obtained:
YAC1 target cells [1] = assay: Natural killer cell activity in nude/nude mice (in vivo treatment, spleen cells); design: species or system mouse
From the text: Compound 7 was also able to potentiate markedly the natural killer cell activity in T cell deficient (nude/nude) mice as is shown in Table 6.
^a Three mice in each group received saline or compound 7 through i.p
route, spleens were removed one day after the treatment, cells were
cells. Each value represents average ±SD cytotoxic activity of three

sheep red blood cells = assay: Primary anti-sheep red blood cell antibody response in mice (plaque assay); assay type: in vivo, mouse; details: C57BL/6, + SRBC, day 6
Description: Compound 7 was tested to determine its effects on primary antibody response against sheep red blood cells in vivo. Mice (C57BL/6) in groups of 4 were injected intraperitoneally with 0.1% sheep red blood cell suspended in saline. At various times compound 7 in various concentrations was administered intraperitoneally.
^a Groups of four C57BL/6 mice were injected i.p. with 6.5 ×
10^6 SRBC and various doses of compound 7. The number of PFC to SRBC
(shown as mean ± SD) were determined on day 6 as described in Cheever.
For Table 9 the number of antibody cells was determined by the modified Jerne, Nordin plaque assay as disclosed in Jerne, N. K., Nordin, A. A., Science 140:405, 1963.

YAC1 target cells [2] = assay: Natural killer cell activity in old C57BL/6J mice (in vivo treatment, spleen cells); design: species or system mouse
Description: For this test compound 7 was injected at a dose of 1.67 mg per mouse and 3.34 mg per mouse and after a day the natural killer cell activity of the spleen cells was determined.
i.p. route. Spleens after treatment were removed, cells were isolated and […]

Mouse Cytomegalovirus = assay: Antiviral activity against mouse cytomegalovirus infection in mice
[3] = test system: Encephalomyocarditis virus; assay: Single versus multiple treatments on Encephalomyocarditis virus infection in mice; assay type: in vivo, mouse; details: for Mean Survival Time: of mice that died
murine B16 melanoma = assay: Artificially induced pulmonary metastatic foci of B16 melanoma in mice; assay type: in vivo, mouse; details: Group 2: 100 mg/kg i.p. 24 h before tumor injection
Description: Test drug, compound 7, was given to groups of test animals. The groups includes a first control group, a second group given drug 24 hours prior to intravenous tumor injection, a third group given drug both 24 hours prior to intravenously tumor injection and 72 hours post tumor injection and a fourth group given drug 72 hours post tumor injection.
^a 10 week old, female C57B1/6 mice in groups of 5 each were injected
intravenously with 5 × 10^5 of B16 melanoma tumor cells. The
mice in groups 2, 3 and 4 were treated by injection of 100 mg/kg of drug

YAC-1 cells = assay: In vitro potentiation of murine natural killer cell activity (mouse spleen cells, 51Cr release); assay type: cell-based
Description: After incubation the cytotoxicity of the treated and untreated cells was determined against YAC-1 cells.
^a Spleen cells from mice were treated with 0.05 mM concentration of
amino acids and 5 × 10^-5 M Mercaptoethanol. The effector cells
were then tested for their cytotoxic activity against YAC1 target cells i
4 hr ^51 Cr release assay.
^a Spleen cells from mice were incubated in the absence and presence
of various compounds. After incubation, cells were suspended in complete
medium and then their cytotoxic activity was determined against YAC1
target cells as described in the text

San Angelo Virus = assay type: in vivo, mouse; details: compound 7 5 mg/kg at -24 h, saline days 0-6; of mice that died
P8/5 tumor target cells = assay: Activation of macrophages following single injection in CBA/CaJ mice; assay type: in vivo; details: Mus musculus, Macrophage
Description: The activity of compound 7 with respect to its ability to activate macrophages was tested by injecting CBA/CaJ mice with a single dose of compound 7 (2 mg per mouse) and after 24 hours the cytotoxicity of the spleen cells (SC), non adherent SC and adherent SC was determined.
^a A group of four mice (CBA/CaJ) were injected with 2 mg/mouse of
compound -7 solution. Control group received saline. After 24 hours of
injection, spleens were harvested. Adherent and nonadherent cells were
separated by incubation of spleen cells on plastic plates for one hour.
Cell suspension of spleen cells, nonadherent cells (NC) and adherent cell
(AC) were prepared in complete medium. Cytotoxicity of SC, NC and AC was
then measured against P8/5 tumor t arget cells in 4 hrs and 20 hrs
chromium release assay.

Rat Coronavirus = assay: Antiviral activity against rat coronavirus infection in suckling rats; assay type: in vivo; details: half daily doses at -24 and -18 h, of rats that died
From the text: Four to five day old suckling rats were infected intranasally with rat coronavirus. One day previously a divided intraperitoneal dose of compound 7 or placebo was given. As shown in the following Table 19, a high percentage of the rats treated with compound 7 survived this lung infection. Further the rats that died lived longer than the placebo-treated controls.
^b Of rats that died. Survivors lived through 21 days.

Influenza B Virus = assay: Antiviral activity against Influenza B virus infection in mice; assay type: in vivo, mouse; details: for Mean Survival Time: once a day at -2 h and days 2, 4, 6
Description: Compound 7 was tested therapeutically against Influenza B Virus Infection in Mice. In addition to a saline control Ribavirin, a known antiviral, was utilized for test purposes.
hours previrus inoculation.
^c p < .001 twotailed ttest.

With `Nc1nc2c(sc(=O)n2[C@@H]2O[C@H](CO)[C@@H](O)[C@H]2O)c(=O)[nH]1` [Compound 7, 5-Amino-3-β-D-ribofuranosylthiazolo[4,5-d]pyrimidine-2,7(6H)-dione] the “% Natural Killer Cell Cytotoxicity” value (YAC1 target cells [1]; 1.67 mg i.p., E:T 50:1) was 43 ± 12%, the “% Natural Killer Cell Cytotoxicity” value (YAC1 target cells [1]; 1.67 mg i.p., E:T 100:1) was 56 ± 12% and the “% Natural Killer Cell Cytotoxicity” value (YAC1 target cells [1]; 1.67 mg i.p., E:T 150:1) was 61 ± 14%. For the same compound, the “% Natural Killer Cell Cytotoxicity” value (YAC1 target cells [1]; 3.34 mg i.p., E:T 50:1) was 38 ± 6%, the “% Natural Killer Cell Cytotoxicity” value (YAC1 target cells [1]; 3.34 mg i.p., E:T 100:1) was 56 ± 6% and the “% Natural Killer Cell Cytotoxicity” value (YAC1 target cells [1]; 3.34 mg i.p., E:T 150:1) was 61 ± 12%. The “increase with respect to saline control” value (YAC1 target cells [1]; both doses tested) was “over two fold”, the “PFC/10^6 Spleen Cells” value (sheep red blood cells; 1.9 mg i.p.) was 143 ± 140 PFC/10^6 Spleen Cells and the “PFC/10^6 Spleen Cells” value (sheep red blood cells; 2.97 mg i.p.) was 307 ± 156 PFC/10^6 Spleen Cells and 165 ± 28 PFC/10^6 Spleen Cells. The “PFC/10^6 Spleen Cells” value (sheep red blood cells; 3.3 mg i.p.) was 176 ± 105 PFC/10^6 Spleen Cells, the “PFC/10^6 Spleen Cells” value (sheep red blood cells; 4.95 mg i.p.) was 467 ± 170 PFC/10^6 Spleen Cells and 433 ± 172 PFC/10^6 Spleen Cells and the “PFC/10^6 Spleen Cells” value (sheep red blood cells; 4.97 mg i.p.) was 371 ± 56 PFC/10^6 Spleen Cells. The “% Natural Killer Cell Cytotoxicity” value (YAC1 target cells [2]; 8 month old mice, 1.67 mg i.p., E:T 50:1) was 14%, the “% Natural Killer Cell Cytotoxicity” value (YAC1 target cells [2]; 8 month old mice, 1.67 mg i.p., E:T 100:1) was 19% and the “% Natural Killer Cell Cytotoxicity” value (YAC1 target cells [2]; 8 month old mice, 1.67 mg i.p., E:T 150:1) was 23%. For the same compound, the “% Natural Killer Cell Cytotoxicity” value (YAC1 target cells [2]; 8 month old mice, 3.34 mg i.p., E:T 50:1) was 17%, the “% Natural Killer Cell Cytotoxicity” value (YAC1 target cells [2]; 8 month old mice, 3.34 mg i.p., E:T 100:1) was 28% and the “% Natural Killer Cell Cytotoxicity” value (YAC1 target cells [2]; 8 month old mice, 3.34 mg i.p., E:T 150:1) was 38%. The “% Natural Killer Cell Cytotoxicity” value (YAC1 target cells [2]; 8 week old mice, 1.67 mg i.p., E:T 50:1) was 15%, the “% Natural Killer Cell Cytotoxicity” value (YAC1 target cells [2]; 8 week old mice, 1.67 mg i.p., E:T 100:1) was 20% and the “% Natural Killer Cell Cytotoxicity” value (YAC1 target cells [2]; 8 week old mice, 1.67 mg i.p., E:T 150:1) was 24%. For the same compound, the “% Natural Killer Cell Cytotoxicity” value (YAC1 target cells [2]; 8 week old mice, 3.34 mg i.p., E:T 50:1) was 17%, the “% Natural Killer Cell Cytotoxicity” value (YAC1 target cells [2]; 8 week old mice, 3.34 mg i.p., E:T 100:1) was 27% and the “% Natural Killer Cell Cytotoxicity” value (YAC1 target cells [2]; 8 week old mice, 3.34 mg i.p., E:T 150:1) was 31%. The “Mean Survival Time” value (Mouse Cytomegalovirus; 50 mg/kg/day, once a day at -2 h and days 2, 4, 6 (therapeutic)) was 6.3 ± 1.1 days, the “Mean Survival Time” value (Mouse Cytomegalovirus; 50 mg/kg/day, single dose 24 h pre-virus (prophylactic)) was 6.5 ± 0.8 days and the “Mean Survival Time” value (Mouse Cytomegalovirus; 100 mg/kg/day, once a day at -2 h and days 2, 4, 6 (therapeutic)) was 6.0 ± 0.8 days. For the same compound, the “Mean Survival Time” value (Mouse Cytomegalovirus; 100 mg/kg/day, single dose 24 h pre-virus (prophylactic)) was 7.0 ± 1.4 days, the cure (Mouse Cytomegalovirus; 200 mg per kg, prophylactic mode) was 100% and the “Mean Survival Time” value (Mouse Cytomegalovirus; 200 mg/kg/day, half-daily doses 24 and 16 h pre-virus (prophylactic)) was over 21 days. The “Mean Survival Time” value ([3]; 200 mg/kg at -24 h, then 50 mg/kg/day day 0-6) was 9.5 ± 2.1 days, the “Mean Survival Time” value ([3]; 200 mg/kg at -24 h only) was 6.0 ± 1.3 days and the “protection, daily 50 mg/kg versus single 200 mg/kg dose” value ([3]; daily dose of 50 mg/kg after 200 mg/kg) was “protected to a greater degree”. For the same compound, the “Mean No. Of Metastatic Foci in Lungs” value (murine B16 melanoma) was 8, the “natural killer cell activity compared to Poly I:C” value (YAC-1 cells; 0.05 mM, 20 to 44 h) was “increased activity compared to Poly I:C” and the “% Natural Killer Cell Cytotoxicity” value (YAC-1 cells; C57BL/6J spleen cells, treatment 0 h, compound 7 at 0.05 mM) was 18%. For the same compound, the “% Natural Killer Cell Cytotoxicity” value (YAC-1 cells; C57BL/6J spleen cells, treatment 20 h, compound 7 at 0.05 mM) was 35% and 25%, the “% Natural Killer Cell Cytotoxicity” value (YAC-1 cells; C57BL/6J spleen cells, treatment 44 h, compound 7 at 0.05 mM) was 34% and 22% and the “% Natural Killer Cell Cytotoxicity” value (YAC-1 cells; CBA/CaJ spleen cells, treatment 0 h, compound 7 at 0.05 mM) was 15% and 23%. For the same compound, the “% Natural Killer Cell Cytotoxicity” value (YAC-1 cells; CBA/CaJ spleen cells, treatment 20 h, compound 7 at 0.05 mM) was 34% and 62%, the “% Natural Killer Cell Cytotoxicity” value (YAC-1 cells; CBA/CaJ spleen cells, treatment 44 h, compound 7 at 0.05 mM) was 31% and 44% and the “% Natural Killer Cell Cytotoxicity” value (YAC-1 cells; Table 21, 0.05 mM) was 34.5% and 25% and 28%. For the same compound, the “Mean Survival Time” value (San Angelo Virus) was 9.6 ± 1.6 days, the cytotoxicity at 2 mg (P8/5 tumor target cells; 4 h, adherent cells, 4 hrs assay) was 37% and the cytotoxicity at 2 mg (P8/5 tumor target cells; 4 h, nonadherent spleen cells, 4 hrs assay) was 45%. For the same compound, the cytotoxicity at 2 mg (P8/5 tumor target cells; 20 h, adherent cells, 20 hrs assay) was 69%, the cytotoxicity at 2 mg (P8/5 tumor target cells; 20 h, nonadherent spleen cells, 20 hrs assay) was 70% and the “Mean Survival Time” value (Rat Coronavirus; 50) was 10.1 ± 2.3 days. The “Mean Survival Time” value (Rat Coronavirus; 100) was 10.2 ± 1.8 days, the “Mean Survival Time” value (Rat Coronavirus; 200) was 13.0 ± 1.0 days and the “Mean Survival Time” value (Influenza B Virus; 50 mg/kg/day) was 6.4 ± 1.5 days. The “Mean Survival Time” value (Influenza B Virus; 100 mg/kg/day) was 6.6 ± 1.1 days, the “efficacy against influenza B (in words)” value (Influenza B Virus; Table 12) was “efficacy between saline, having no antiviral activity against influenza, and Ribavirin” and the “antiviral activity against influenza B virus, further test” value (Influenza B Virus; further test) was “little or no antiviral activity”.

Source: US5041426A, “Immune system enhancing 3-β-d-ribofuranosylthiazolo[4,5-d]pyridimine nucleosides and nucleotides” (priority 1988, dated 1991)
